This note sets out measurements from publication PMC4506051, “Pharmacokinetic Profiles of Active Ingredients and Its Metabolites Derived from Rikkunshito, a Ghrelin Enhancer, in Healthy Japanese Volunteers: A Cross-Over, Randomized Study” (PLoS ONE, 2015).

A short description of series [1]: Randomized crossover quantitative trial: plasma pharmacokinetics of nine ingredients after rikkunshito 2.5, 5.0 or 7.5 g. The conditions noted are these: for AUC(0-t) / Cmax / Tmax / half-life: human, plasma, po; for AUC(0-t): AUC0-last; for AUC(0-t) / Cmax / half-life / t 1/2: geometric mean (95% CI); for Cmax: C max; for Tmax: Median t max (range); for Tmax / Median t max (range): median (minimum–maximum). The source says: The first trial was a nonrandomized, open-label, one-period design. The second trial was a randomized, open-label, three-arm, three-period design (Fig 1). With respect to inclusion criteria, the studies included healthy Japanese adults between 20 and 45 years of age with a body mass index between 18 and 25 who were willing and able to comply with the study requirements. Exclusion criteria for this study included a history of significant liver, heart, or vessel disease and consumption of supplements that contained any rikkunshito ingredients or any drug within 3 days to 1 week before the first dose. Other standard exclusion criteria included relevant allergies, pregnant or nursing females, and any alcohol or nicotine use. The sample size was set as more than 15 based on the Ministry of Health, Labour and Welfare’s guidelines. Subjects allocated to a screening test were randomized to one of three groups by the central allocation system (allocation ratio 1:1:1). A random sequence was generated using a computer. The safety endpoint was evaluated in all volunteers. This endpoint was defined on the basis of a physician’s judgement after examination or observation that a serious adverse event had occurred. Adverse events included death, a life-threatening event, an event requiring hospitalization for treatment or an extended stay in hospital, an event resulting in permanent or temporary disability or dysfunction, an event resulting in a congenital abnormality, or any other serious medical phenomenon. With respect to side effects, no specific conditions were defined, and all adverse events for which no causal relationship with the drug could be excluded were deemed to be side effects. In each stage during the 48-h period following rikkunshito administration, the physician monitored the patient for subjective symptoms, objective findings, swelling, body temperature (axillary), blood pressure (sitting), and pulse (sitting). The physician also conducted a hematological examination to measure the patient’s red blood cell, leucocyte and platelet counts, hemoglobin level, and hematocrit value. A biochemical examination was conducted to determine total protein, blood urea nitrogen, creatinine, uric acid, aspartate aminotransferase, alanine aminotransferase, total bilirubin, alkaline phosphatase, γ-glutamyltranspeptidase albumin, prothrombin time, total cholesterol, C-reactive protein, and potassium to identify any abnormalities in comparison with the subject’s condition prior to administration. All participants fasted for 12 h before administration and 4 h after administration of the study drug.
In the second quantitative trial, 12-mL blood samples were collected at 0 (preadministration), 0.25, 0.5, 1, 2, 3, 4, 6, 8, 10, 12, 24, and 48 h after a single oral administration of rikkunshito (Lot H05142). A total of 3 daily doses were used in this trial, i.e., the clinical dose per administration (2.5 g) as the lowest dose, the clinical daily dose (7.5 g) as the highest dose, and an intermediate dose (5.0 g), to broadly discuss the pharmacokinetic characteristics of the ingredients measured. The trial participants were hospitalized overnight on the day they ingested rikkunshito, and returned home the following day after blood samples were collected at the 24-h time point. The participants returned to the hospital to provide blood samples at 48 h. The blood was immediately centrifuged at 1700 ×g for 15 min to obtain plasma. Plasma fractions were stored at −20°C or lower until analysis.
Plasma, urine, and rikkunshito formulation samples were analyzed for rikkunshito ingredients concentrations using a liquid chromatography–mass spectrometry with tandem mass spectrometer assay (LC–MS/MS; API5000, Triple Quad 6500, or QTRAP5500; AB Sciex, Tokyo, Japan) or gas chromatography–mass spectrometry. Further information of analytical methods can be found at S1 Appendix.

Series [2] can be described thus: Dose proportionality (linearity) test by power model for C max and AUC0-last. The conditions noted are these: for Dose proportionality test using power model, Inference: linear when 90% CI of β included 1, CIlower ≥0.8, and CIupper ≤1.25; for Dose proportionality test using power model, β: rikkunshito 2.5, 5.0 or 7.5 g.
Description: The dose proportionality was analyzed via a power model [21, 22]. […] Evaluation of linearity of the dosage-exposure relationship was conducted with Phoenix WinNonlin and SAS 9.2 (SAS Institute, Inc., Cary, NC).
Series [3] has as its target T1, GHS-R (Homo sapiens, UniProt Q92847).
T1 construct: host or cells: GHS-R-expressing cells (printed 'GSH-R-expressing cells')
Description: Ghrelin/GHS-R binding activity, radioligand binding using GHS-R-expressing cells (S1 Fig). Conditions: n = 3, S1 Fig. On the procedure: Supplementary file pone.0133159.s004.tif: S1 Fig Effect of atractylodin and atractylodin carboxylic acid on ghrelin/GHS-R binding activity. Radioligand binding was performed using GSH-R-expressing cells (n = 3). (TIF) Click here for additional data file.

Setting [4] is: 2.5 g, rikkunshito 2.5 g single oral, n = 21.
Setting [5] is: 5 g, rikkunshito 5.0 g single oral, n = 19.
The mark [6] stands for this setting: 7.5 g, rikkunshito 7.5 g single oral, n = 19.
Setting [7] is: rikkunshito 7.5 g single oral, n = 19.
Where [8] appears, read: rikkunshito 7.5 g single oral, n = 19, listed as atractylodin carboxylic acid.

T1 sequence (Q92847 whole entry, species assumed): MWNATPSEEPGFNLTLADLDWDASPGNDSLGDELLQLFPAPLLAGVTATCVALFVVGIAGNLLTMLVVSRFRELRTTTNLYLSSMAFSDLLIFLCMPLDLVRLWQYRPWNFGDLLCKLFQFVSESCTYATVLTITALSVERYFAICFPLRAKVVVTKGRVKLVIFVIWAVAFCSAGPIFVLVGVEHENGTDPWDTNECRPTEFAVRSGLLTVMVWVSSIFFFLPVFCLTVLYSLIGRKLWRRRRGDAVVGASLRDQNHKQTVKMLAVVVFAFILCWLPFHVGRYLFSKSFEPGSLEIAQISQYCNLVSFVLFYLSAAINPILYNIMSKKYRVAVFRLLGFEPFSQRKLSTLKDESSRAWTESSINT

Take `O=C(O)/C=C/C#CC#C/C=C/c1ccco1` [Atractylodin carboxylic acid]: in series [1] (after administration of 7.5 g rikkunshito), the “C max of metabolite relative to unchanged form (atractylodin)” value is given as 5.7–31.5 fold. Moreover, the AUC(0-t) (in general, exposure summed from dosing to a finite time, without extrapolation to infinity) turned out to be 3.91 ng·h/mL in series [1] (setting [4]), 8.74 ng·h/mL in series [1] (setting [5]) and 12.7 ng·h/mL in series [1] (setting [6]). The Cmax (in general, the peak of the concentration-time curve) in series [1] (setting [4]) amounted to 4.45 ng/mL; in series [1] (setting [5]) it was 9.57 ng/mL; in series [1] (setting [6]), 14.3 ng/mL. The Tmax in series [1] (setting [4]) and in series [1] (setting [5]) was 15 min throughout. In addition, the half-life (in general, how long it takes for the measured level to halve) in series [1] (2.5 g, t 1/2, rikkunshito 2.5 g single oral, n = 21) is 34.8 min; in series [1] (5 g, t 1/2, rikkunshito 5.0 g single oral, n = 19), 38.2 min. For the same compound, the “t 1/2” value was 0.663 (0.560–0.790) h in series [1] (setting [7]) and under 10 h in series [1] (setting [8]). In addition, the “Median t max (range)” value in series [1] (setting [7]) is given as 0.250 (0.250–0.500) h; in series [1] (setting [8]), at most 1 h. Besides, the “Dose proportionality test using power model, Inference” value in series [2] (AUC0-last) and in series [2] (Cmax) was “Linear” throughout. Besides, the “Dose proportionality test using power model, β” value is reported as 1.08 in series [2] (AUC0-last) and 1.05 in series [2] (Cmax). In addition, in series [3], the “Ghrelin/GHS-R binding (ghrelin signal enhancement) activity compared with atractylodin” value is on record as “as potent as atractylodin”.
